Measurements reported in patent publication US6348309B1, “Process for inactivating viruses in blood and blood products” (priority 1989, dated 2002).
Marks after values point to notes of the source that are not given here.

What was measured:
[1] = tested on: vesicular stomatitis virus (VSV); format: cell-based
HIV-1 = experiment: MB/light virus inactivation in plasma (Example 6, Table VI); format: cell-based; conditions: illumination 10 min
SIV = experiment: as above; format: cell-based; conditions: illumination 15 min; * production conditions, plastic bag 250-300 ml plasma
Herpes Simplex = experiment: as above; format: cell-based; conditions: illumination 60 min; * production conditions, plastic bag 250-300 ml plasma
Sindbis = format: cell-based
Influenza = format: cell-based
Calici = format: cell-based
coagulation factor V = target: T1, coagulation factor V (Homo sapiens, UniProt P12259); experiment: Coagulation factor activity in human plasma right after MB addition (Example 9); format: biochemical; conditions: no light
T1 construct: Varying amounts of MB were added to human plasma (2 ml aliquots); from tissue; host or cells: human plasma
T1 sequence (P12259 29-2224): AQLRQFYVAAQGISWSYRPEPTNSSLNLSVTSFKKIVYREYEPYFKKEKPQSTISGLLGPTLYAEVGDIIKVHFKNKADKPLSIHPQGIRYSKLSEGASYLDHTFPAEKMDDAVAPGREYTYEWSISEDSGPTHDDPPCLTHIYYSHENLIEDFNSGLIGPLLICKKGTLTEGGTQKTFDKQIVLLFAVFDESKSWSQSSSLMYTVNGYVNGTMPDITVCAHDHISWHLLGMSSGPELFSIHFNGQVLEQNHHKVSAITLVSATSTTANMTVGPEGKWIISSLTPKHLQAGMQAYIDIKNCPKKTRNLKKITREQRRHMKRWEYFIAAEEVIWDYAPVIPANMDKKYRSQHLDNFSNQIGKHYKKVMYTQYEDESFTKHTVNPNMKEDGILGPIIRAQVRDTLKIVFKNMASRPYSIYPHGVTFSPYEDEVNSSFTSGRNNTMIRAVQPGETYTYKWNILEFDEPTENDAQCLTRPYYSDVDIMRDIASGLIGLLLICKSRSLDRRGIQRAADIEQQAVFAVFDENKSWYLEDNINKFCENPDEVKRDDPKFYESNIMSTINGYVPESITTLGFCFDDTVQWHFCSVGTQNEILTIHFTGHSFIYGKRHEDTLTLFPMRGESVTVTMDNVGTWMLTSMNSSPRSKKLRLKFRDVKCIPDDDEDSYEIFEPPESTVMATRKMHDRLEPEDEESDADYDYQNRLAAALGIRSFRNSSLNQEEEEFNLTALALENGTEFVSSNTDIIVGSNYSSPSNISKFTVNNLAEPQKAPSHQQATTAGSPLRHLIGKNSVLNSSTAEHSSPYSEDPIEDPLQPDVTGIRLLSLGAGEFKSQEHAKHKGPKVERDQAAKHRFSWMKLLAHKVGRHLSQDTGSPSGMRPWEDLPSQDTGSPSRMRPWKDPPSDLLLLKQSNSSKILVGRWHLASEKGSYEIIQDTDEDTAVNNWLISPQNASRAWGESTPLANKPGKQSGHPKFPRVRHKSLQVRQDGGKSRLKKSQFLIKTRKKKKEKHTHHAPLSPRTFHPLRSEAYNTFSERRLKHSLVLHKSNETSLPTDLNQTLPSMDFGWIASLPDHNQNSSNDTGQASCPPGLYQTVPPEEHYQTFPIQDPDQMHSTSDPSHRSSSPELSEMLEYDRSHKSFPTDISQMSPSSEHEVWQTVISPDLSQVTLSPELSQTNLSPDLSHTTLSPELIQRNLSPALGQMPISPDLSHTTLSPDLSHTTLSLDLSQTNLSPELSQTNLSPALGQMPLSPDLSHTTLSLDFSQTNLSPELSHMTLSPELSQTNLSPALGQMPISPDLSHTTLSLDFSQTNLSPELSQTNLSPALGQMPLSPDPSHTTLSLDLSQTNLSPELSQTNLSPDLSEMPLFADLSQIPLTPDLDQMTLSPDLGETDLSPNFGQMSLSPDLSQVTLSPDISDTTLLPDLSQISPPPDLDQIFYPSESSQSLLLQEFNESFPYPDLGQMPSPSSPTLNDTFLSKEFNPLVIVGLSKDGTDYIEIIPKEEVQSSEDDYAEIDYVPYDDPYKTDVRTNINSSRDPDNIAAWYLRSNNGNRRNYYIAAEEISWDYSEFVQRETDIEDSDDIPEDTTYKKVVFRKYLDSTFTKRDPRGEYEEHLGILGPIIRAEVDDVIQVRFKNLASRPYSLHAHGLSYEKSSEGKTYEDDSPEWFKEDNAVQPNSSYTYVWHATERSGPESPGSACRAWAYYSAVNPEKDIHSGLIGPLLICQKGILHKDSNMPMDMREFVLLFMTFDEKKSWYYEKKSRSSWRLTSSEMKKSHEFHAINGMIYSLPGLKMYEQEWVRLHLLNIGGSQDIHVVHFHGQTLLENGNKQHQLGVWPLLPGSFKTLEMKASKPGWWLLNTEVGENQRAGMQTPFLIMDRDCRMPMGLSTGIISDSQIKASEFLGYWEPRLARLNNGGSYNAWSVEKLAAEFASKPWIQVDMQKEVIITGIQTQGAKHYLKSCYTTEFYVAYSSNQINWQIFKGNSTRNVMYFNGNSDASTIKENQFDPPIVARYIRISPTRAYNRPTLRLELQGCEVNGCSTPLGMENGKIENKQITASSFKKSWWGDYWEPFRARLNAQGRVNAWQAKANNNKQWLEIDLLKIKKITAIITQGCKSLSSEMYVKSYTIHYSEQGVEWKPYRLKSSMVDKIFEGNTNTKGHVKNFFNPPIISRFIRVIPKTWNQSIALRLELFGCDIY

coagulation factor VIII [2] = target: T2, coagulation factor VIII (Homo sapiens, UniProt P00451); experiment: as above; format: biochemical; conditions: no light
T2 construct: Varying amounts of MB were added to human plasma (2 ml aliquots); from tissue; host or cells: human plasma
T2 sequence (P00451 20-1332 limits assumed): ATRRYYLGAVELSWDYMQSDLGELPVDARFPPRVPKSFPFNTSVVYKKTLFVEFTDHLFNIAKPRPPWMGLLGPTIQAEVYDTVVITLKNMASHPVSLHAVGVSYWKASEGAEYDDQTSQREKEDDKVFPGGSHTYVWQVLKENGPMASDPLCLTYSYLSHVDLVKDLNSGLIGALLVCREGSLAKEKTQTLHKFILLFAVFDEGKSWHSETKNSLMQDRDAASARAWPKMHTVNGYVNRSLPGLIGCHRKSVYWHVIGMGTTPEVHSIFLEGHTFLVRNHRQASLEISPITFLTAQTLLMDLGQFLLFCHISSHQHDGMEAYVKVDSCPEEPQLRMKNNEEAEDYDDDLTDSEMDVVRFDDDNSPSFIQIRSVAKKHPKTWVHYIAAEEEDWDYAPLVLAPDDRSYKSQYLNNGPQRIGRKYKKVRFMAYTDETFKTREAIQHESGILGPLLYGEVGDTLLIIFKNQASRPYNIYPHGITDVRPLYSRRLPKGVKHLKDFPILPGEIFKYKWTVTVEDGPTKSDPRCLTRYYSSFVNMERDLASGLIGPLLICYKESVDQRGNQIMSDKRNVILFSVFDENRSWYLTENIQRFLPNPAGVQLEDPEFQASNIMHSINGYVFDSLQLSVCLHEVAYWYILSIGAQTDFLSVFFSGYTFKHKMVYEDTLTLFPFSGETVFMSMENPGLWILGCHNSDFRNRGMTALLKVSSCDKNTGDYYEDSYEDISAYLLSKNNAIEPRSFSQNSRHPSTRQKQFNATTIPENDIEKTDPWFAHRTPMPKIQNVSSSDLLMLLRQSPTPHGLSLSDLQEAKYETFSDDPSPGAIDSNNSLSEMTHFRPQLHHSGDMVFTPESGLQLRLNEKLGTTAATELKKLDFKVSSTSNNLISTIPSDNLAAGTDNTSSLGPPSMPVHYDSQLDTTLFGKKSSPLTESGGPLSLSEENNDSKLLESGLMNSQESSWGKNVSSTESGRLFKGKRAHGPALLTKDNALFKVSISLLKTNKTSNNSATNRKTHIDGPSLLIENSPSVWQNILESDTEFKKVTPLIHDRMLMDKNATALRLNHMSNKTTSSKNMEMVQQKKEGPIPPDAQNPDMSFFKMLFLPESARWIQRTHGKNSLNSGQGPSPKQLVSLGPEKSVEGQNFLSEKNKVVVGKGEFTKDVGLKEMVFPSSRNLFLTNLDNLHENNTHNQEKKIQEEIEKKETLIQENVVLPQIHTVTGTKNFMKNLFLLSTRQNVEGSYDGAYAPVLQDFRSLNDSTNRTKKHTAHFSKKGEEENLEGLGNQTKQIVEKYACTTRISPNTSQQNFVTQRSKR
T2 sequence (P00451 1668-2351 limits assumed): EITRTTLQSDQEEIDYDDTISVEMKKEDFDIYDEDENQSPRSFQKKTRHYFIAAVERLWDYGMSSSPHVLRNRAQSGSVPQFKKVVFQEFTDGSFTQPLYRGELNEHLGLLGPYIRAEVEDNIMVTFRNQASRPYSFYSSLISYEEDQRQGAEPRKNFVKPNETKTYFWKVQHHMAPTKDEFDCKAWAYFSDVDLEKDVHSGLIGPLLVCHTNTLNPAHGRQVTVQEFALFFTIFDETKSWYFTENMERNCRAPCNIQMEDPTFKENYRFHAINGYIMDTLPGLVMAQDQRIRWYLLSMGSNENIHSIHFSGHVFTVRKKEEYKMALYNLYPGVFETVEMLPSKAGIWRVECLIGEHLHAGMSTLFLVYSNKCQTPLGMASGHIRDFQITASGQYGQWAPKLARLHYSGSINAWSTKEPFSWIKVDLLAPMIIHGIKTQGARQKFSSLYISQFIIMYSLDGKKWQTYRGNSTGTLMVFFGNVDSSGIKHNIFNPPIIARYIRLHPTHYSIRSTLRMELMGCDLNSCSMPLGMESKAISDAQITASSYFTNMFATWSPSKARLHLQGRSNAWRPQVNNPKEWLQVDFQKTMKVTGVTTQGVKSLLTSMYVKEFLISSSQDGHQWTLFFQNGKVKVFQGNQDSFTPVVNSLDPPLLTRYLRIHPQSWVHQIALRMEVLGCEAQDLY

coagulation factor IX = target: T3, coagulation factor IX (Homo sapiens, UniProt P00740); experiment: as above; format: biochemical; conditions: no light
T3 construct: Varying amounts of MB were added to human plasma (2 ml aliquots); from tissue; host or cells: human plasma
T3 sequence (P00740 47-461): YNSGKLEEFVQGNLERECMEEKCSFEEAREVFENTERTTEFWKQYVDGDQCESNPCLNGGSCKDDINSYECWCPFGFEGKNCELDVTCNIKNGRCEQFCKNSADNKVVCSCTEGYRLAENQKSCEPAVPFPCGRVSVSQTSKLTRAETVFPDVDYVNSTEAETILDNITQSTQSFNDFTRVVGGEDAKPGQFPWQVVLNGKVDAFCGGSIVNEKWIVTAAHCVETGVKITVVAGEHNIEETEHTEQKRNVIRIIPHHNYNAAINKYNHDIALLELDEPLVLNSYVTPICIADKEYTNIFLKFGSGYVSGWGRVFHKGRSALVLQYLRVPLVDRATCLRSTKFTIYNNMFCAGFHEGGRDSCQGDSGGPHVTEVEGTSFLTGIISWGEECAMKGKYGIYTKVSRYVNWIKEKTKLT

coagulation factor VIII [3] = target: T2, coagulation factor VIII; experiment: Coagulation factor activity in human plasma with MB and light exposure (Example 10); format: biochemical
VSV = format: cell-based, vesicular stomatitis virus

CN(C)c1ccc2nc3ccc(=[N+](C)C)cc-3sc2c1 [MB, methylene blue]
reduction of infectious titer of VSV by irradiation [1]: more than 6 log10
Inactivation Rate (HIV-1): >6.50 log10 TCID50
Inactivation Rate (SIV): >6.26 * log10 TCID50
Inactivation Rate (Herpes Simplex): >5.50 * log10 TCID50
Inactivation Rate (Sindbis): >9.73 log10 TCID50
Inactivation Rate (Influenza): 5.10 log10 TCID50
Inactivation Rate (Calici): >3.9 * log10 TCID50
Factor V (coagulation factor V; Methylene Blue 1 μM): 0.76 E/ml
Factor V (coagulation factor V; Methylene Blue 2.5 μM): 0.78 E/ml
Factor V (coagulation factor V; Methylene Blue 5 μM): 0.74 E/ml
Factor V (coagulation factor V; Methylene Blue 10 μM): 0.54 E/ml
Factor V (coagulation factor V; Methylene Blue 20 μM): 0.44 E/ml
MB concentration from which factor V activity is inhibited (coagulation factor V): about 10 μM
Factor VIII (coagulation factor VIII [2]; Methylene Blue 1 μM): 0.41 E/ml
Factor VIII (coagulation factor VIII [2]; Methylene Blue 2.5 μM): 0.41 E/ml
Factor VIII (coagulation factor VIII [2]; Methylene Blue 5 μM): 0.38 E/ml
Factor VIII (coagulation factor VIII [2]; Methylene Blue 10 μM): 0.35 E/ml
Factor VIII (coagulation factor VIII [2]; Methylene Blue 20 μM): 0.28 E/ml
MB concentration from which factor VIII activity is inhibited (coagulation factor VIII [2]): about 10 μM
Factor IX (coagulation factor IX; Methylene Blue 1 μM): 1.9 E/ml
Factor IX (coagulation factor IX; Methylene Blue 2.5 μM): 1.6 E/ml
Factor IX (coagulation factor IX; Methylene Blue 5 μM): 1.45 E/ml
Factor IX (coagulation factor IX; Methylene Blue 10 μM): 1.20 E/ml
Factor IX (coagulation factor IX; Methylene Blue 20 μM): 1.10 E/ml
MB concentration from which factor IX activity is inhibited (coagulation factor IX): 2.5 µM
Factor VIII (coagulation factor VIII [3]; light exposure 0 h, MB 1 μM): 0.45 E/ml
Factor VIII (coagulation factor VIII [3]; light exposure 0 h, MB 2.5 μM): 0.33 E/ml
Factor VIII (coagulation factor VIII [3]; light exposure 0 h, MB 10 μM): 0.30 E/ml
Factor VIII (coagulation factor VIII [3]; light exposure 1 h, MB 1 μM): 0.24 E/ml
Factor VIII (coagulation factor VIII [3]; light exposure 1 h, MB 2.5 μM): 0.24 E/ml
Factor VIII (coagulation factor VIII [3]; light exposure 1 h, MB 10 μM): 0.16 E/ml
Factor VIII (coagulation factor VIII [3]; light exposure 2 h, MB 1 μM): 0.23 E/ml
Factor VIII (coagulation factor VIII [3]; light exposure 2 h, MB 2.5 μM): 0.22 E/ml
Factor VIII (coagulation factor VIII [3]; light exposure 2 h, MB 10 μM): 0.15 E/ml
Factor VIII (coagulation factor VIII [3]; light exposure 4 h, MB 1 μM): 0.16 E/ml
Factor VIII (coagulation factor VIII [3]; light exposure 4 h, MB 2.5 μM): 0.29 E/ml
Factor VIII (coagulation factor VIII [3]; light exposure 4 h, MB 10 μM): 0.27 E/ml
reduction of infectious titer of VSV (VSV): more than 5 log10-steps
